Data on four compounds can be found in the supplement of paper PMC11061612.

Holding throughout (experiment): combination Emax (second highest fraction inhibited in the dose matrix, 72 h); higher = more inhibition; extreme values may be limits of the assay
The test system of assay [1] is COLO-668 (Small Cell Lung Carcinoma). The essentials: (§1)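 Cell lines grown in DMEM/F12 or RPMI with 10% FBS were plated in 1536-well plates and held 24 hours at 37°C, 5% CO2 before 72 hours of exposure to two-drug dose matrices, with DMSO typically at 0.2%. CellTiter-Glo 2.0 luminescence gave viability, which was converted to inhibition. Vehicle wells were set to 0 and blank wells to 1. Combination Emax is the second-highest inhibition in the matrix, and Bliss excess is the observed combination effect minus the expected EA + EB − EA·EB, where EA and EB are the single-agent effects.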

Assay [2] has as its system COLO-679 (Melanoma). The essentials:
as §1

Assay [3] deals with EFO-21 (Ovarian Carcinoma). The essentials:
as §1

In assay [4] the test system is HAL-01 (B-Lymphoblastic Leukemia). The essentials:
as §1

In assay [5] the test system is KGN (Other Solid Carcinomas). The essentials:
as §1

Assay [6] deals with KMRC-1 (Kidney Carcinoma). The essentials: as §1
Assay [7] relates to MDA-MB-453 (Breast Carcinoma). The essentials: as §1
The subject of assay [8] is MOG-G-UVW (Low Grade Glioma). The essentials: as §1
Assay [9] concerns MOLT-4 (T-Lymphoblastic Leukemia). The essentials: as §1
In assay [10] the test system is NCI-H1355 (Lung Adenocarcinoma). The essentials:
as §1

Assay [11] relates to NCI-H1993 (Lung Adenocarcinoma). The essentials:
as §1

Assay [12] concerns OE33 (Esophageal Adenocarcinoma). The essentials: as §1
Assay [13] has as its system SK-LU-1 (Lung Adenocarcinoma). The essentials: as §1
Assay [14] deals with SKN (Other Solid Carcinomas). The essentials: as §1
Assay [15] has as its system SNU-387 (Hepatocellular Carcinoma). The essentials: as §1

Consider `C[C@@H](Oc1cc(-c2cnn(C3CCNCC3)c2)cnc1N)c1c(Cl)ccc(F)c1Cl` [Crizotinib] + Cn1cnc2c(F)c(Nc3ccc(Br)cc3Cl)c(C(=O)NOCCO)cc21 [Selumetinib] (first compound max 10 µM, 7x7, partner max 10 µM), for which the “combination Emax” value in assay [1] was 0.852; in assay [2], 0.798; in assay [3], 0.224; in assay [4] it was 0.991; in assay [5], 0.816; in assay [6], 0.323. In addition, the “combination Emax” value in assay [7] was 0.15; in assay [8], 0.77; in assay [9] it was 0.815; in assay [10], 0.388; in [11], 0.871; in assay [12], 0.539. Further, the “combination Emax” value worked out at 0.34 in [13], 0.368 in assay [14] and 0.89 in assay [15].
Turning to `CS(=O)(=O)CCNCc1ccc(-c2ccc3ncnc(Nc4ccc(OCc5cccc(F)c5)c(Cl)c4)c3c2)o1` [Lapatinib] + Cn1cnc2c(F)c(Nc3ccc(Br)cc3Cl)c(C(=O)NOCCO)cc21 [Selumetinib] (first compound max 10 µM, 7x7, partner max 10 µM), the “combination Emax” value is 0.493 in [1]; 0.749 in assay [2]; 0.331 in assay [3]; 0.516 in assay [4]; 0.535 in assay [5]; 0.696 in assay [6]. Also, the “combination Emax” value in assay [7] was 0.389; in assay [8], 0.469; in [9], 0.501; in [10], 0.472; in assay [11], 0.73; in assay [12], 0.743. The “combination Emax” value in assay [13] was determined as 0.377; in assay [14] it was 0.341; in assay [15] it was 0.62.
With `O=C(c1cc(Cc2n[nH]c(=O)c3ccccc23)ccc1F)N1CCN(C(=O)C2CC2)CC1` [Olaparib] + CC1(C)CCC(CN2CCN(c3ccc(C(=O)NS(=O)(=O)c4ccc(NCC5CCOCC5)c([N+](=O)[O-])c4)c(Oc4cnc5[nH]ccc5c4)c3)CC2)=C(c2ccc(Cl)cc2)C1 [Venetoclax] (first compound max 10 µM, 7x7, partner max 1 µM), the “combination Emax” value in [1] came out at 0.255; in assay [2], 0.0175; in assay [3], 0.0952; in assay [4], 0.926; in assay [5] it was 0.292; in assay [6] it was 0.182. Besides, the “combination Emax” value in assay [7] came out at 0.104; in [8], 0.257; in assay [9], 0.7; in assay [10] it was 0.172; in [11], 0.0726; in assay [12], 0.139. In addition, the “combination Emax” value amounted to 0.2 in [13], 0.104 in assay [14] and 0.256 in [15].
On to `O=C(c1cc(Cc2n[nH]c(=O)c3ccccc23)ccc1F)N1CCN(C(=O)C2CC2)CC1` [Olaparib] + CN(CC[C@H](CSC1=CC=CC=C1)NC2=C(C=C(C=C2)S(=O)(=O)NC(=O)C3=CC=C(C=C3)N4CCC(CC4)[C@H](C5=CC=CC=C5C6=CC=C(C=C6)Cl)O)S(=O)(=O)C(F)(F)F)CCO [AZD4320] (first compound max 10 µM, 7x7, partner max 1 µM), for which the “combination Emax” value worked out at 0.823 in assay [1]; 0.0175 in assay [2]; 0.172 in assay [3]; 0.65 in assay [4]; 0.298 in assay [5]; 0.219 in assay [6]. Besides, the “combination Emax” value was 0.224 in assay [7]; 0.344 in [8]; 0.977 in assay [9]; 0.198 in [10]; 0.595 in [11]; 0.105 in assay [12]. Further, the “combination Emax” value was determined as 0.48 in [13], 0.174 in assay [14] and 0.304 in assay [15].
